Source: patent publication US11254654B2, “Heterochromatin gene repression inhibitors” (The University of North Carolina at Chapel Hill, priority 2017, dated 2022)
Where a name gives a salt, the structure may show the parent alone.

Assays:
Format in all cases: cell-based, mouse
[1] = system: HP1-mediated gene repression; test: UNC2524 structure-activity relationship assay, CiA:Oct4 N118/N163 flow cytometry; details: 10 μM, 48 hrs
Experimental: Day 0, CiA:Oct4 N118/163 cells were grown in ES media and seeded at a density of 10,000 cells per well (100,000 cells/mL) into gelatin coated 96 well plates. Day 1, media was aspirated and replaced with 100 μL fresh ES media containing +/−6 nM rapamycin and 10 μM of each compound derived for SAR. Day 2, culture media was aspirated away and […] fresh ES media containing +/−6 nM rapamycin and 10 μM of compounds were added as on Day 1. Day 3, the media was aspirated out of the wells and the cells were washed with PBS and trypsinized using 0.25% trypsin-EDTA. Trypsin was quenched with serum. Cells were resuspended by pipetting to prepare the plates for flow cytometry analysis as described above.
Compounds 2-8 were chemically synthesized from UNC2524 (compound 1) (FIG. 10A). To ascertain the biological activity of these chemical derivatives, CiA:Oct4 N118/N163 cells were used. Cells were treated with rapamycin plus compounds 2 and 5-8 for 48-hours prior to analysis by flow cytometry. Compound activity was confirmed by an increase in % inhibition compared to control samples. Compounds 5 and 6 added a pentenal chain and BOC group to the piperidine ring while compound 7 substituted a hexyl chain for the pyrrolidine. […] Further, it was identified that the 7-methoxy side chain was amenable to modification with a benzene ring in compound 8, while preserving most of the biological activity (˜51%).
Referring to FIG. 10A, a series of compounds derived from compound 1 (UNC2524) were designed to optimize compound activity and determine amenability of compounds for affinity purification methods. Referring to FIG. 10B, CiA:Oct4 N118/N163 cells were treated with SAR compounds at 10 μM for 48 hrs+/−6 nM rapamycin. Flow cytometry analysis was used to determine the % GFP (+) population. […] (p≤0.05*, 0.01**).

CiA:Oct4 N118/N163 cells = test: Compound 2 activity and fluorescence microscopy; details: 7.5 μM, 48 hrs
Experimental: Day 0, CiA:Oct4 N118/N163 cells were plated into 96 well plate and 10 or 15 cm plate formats. Day 1, media was aspirated and replaced with fresh ES media +/−7.5 μM compound 2+/−6 nM rapamycin. Day 2, media was aspirated and replaced with fresh ES media +/−7.5 μM compound 2+/−6 nM rapamycin. Day 3, media was removed from 96 well plate and cells were washed with PBS prior to trypsinization and flow cytometry analysis as described above to confirm functional inhibition of compound 2.
Prior to imaging, ES media was removed from 10-15 cm plates and replaced with PBS to decrease background fluorescence. Cells were imaged using an Olympus IX71 microscope analyzed using Cellsens software. Representative images were taken in 2 random plate locations for each of the four conditions. Image levels were normalized using Adobe Photoshop.
In order to confirm that compound 2 was inhibiting H3K9me3 deposition, CiA:Oct4 N118/N163 cells were grown for 48-hours with rapamycin mediating HP1 recruitment, +/−compound 2 (FIG. 11G). Representative brightfield and fluorescence images were taken for the four sample types ((−) rapamycin/(−) compound 2, (−) rapamycin/(+) compound 2, (+) rapamycin/(−) compound 2, (+) rapamycin/(+) compound 2). […] Subsequently, all samples were analyzed by flow cytometry to confirm the inhibitory effects of compound 2 on HP1-mediated gene repression. […]

H3K9me3 = test: ChIP-qPCR at CiA:Oct4 locus, TSS+489; details: 48 hr, + 6 nM rapamycin, 489 bp downstream of TSS
Experimental: 10-15 cm plates of cells grown to confluence were washed with PBS and trypsinized 10 min with 0.25% trypsin-EDTA. ES media was added to quench the trypsin, and cells were resuspended prior to counting using a Countess II Automated Cell Counter (ThermoFisher). Cell suspension was centrifuged at 300×g for 5 min. Cell pellet was washed with PBS and pelleted at 300×g for 5 min. Cells were resuspended and crosslinked with 1% formaldehyde for 10 min. 2.5 M glycine (0.125 M final) was added and samples were put on ice to stop the crosslinking. […]
Enrichment of ChIP DNA was determined by qPCR. […] Samples were analyzed using the comparative ΔΔCt method and normalized against an intergenic control region (Hathaway et al., 2012; Livak & Schmittgen, 2001). […]
Chromatin immunoprecipitation (ChIP) was used to determine the levels of H3K9me3 at the Oct4 locus upon treatment with compound 2. […] For this reason, the levels of H3K9me3 were analyzed at 489 bp downstream of the TSS in all four sample conditions. qPCR was used to amplify this region in addition to an intergenic control region. […]
(§1) Referring to FIG. 11A, CiA:Oct4 csHP1α recruiting cells were incubated with 7.5 μM compound 2+/−6 nM rapamycin for 48 hrs and representative brightfield and GFP fluorescence images were acquired at 20×. […] GFP expression was analyzed by flow cytometry. […]

H3K4me3 = test: ChIP-qPCR at CiA:Oct4 locus, TSS+489; details: 48 hr treatment, +/- rapamycin
Experimental: (§2) 10-15 cm plates of cells grown to confluence were washed with PBS and trypsinized 10 min with 0.25% trypsin-EDTA. ES media was added to quench the trypsin, and cells were resuspended prior to counting using a Countess II Automated Cell Counter (ThermoFisher). Cell suspension was centrifuged at 300×g for 5 min. Cell pellet was washed with PBS and pelleted at 300×g for 5 min. Cells were resuspended and crosslinked with 1% formaldehyde for 10 min. 2.5 M glycine (0.125 M final) was added and samples were put on ice to stop the crosslinking. Nuclei were isolated by incubating cells on ice for 10 min in CiA NP Rinse 1 (50 mM HEPES pH 8.0, 140 mM NaCl, 1 mM EDTA, 10% glycerol, 0.5% NP40, 0.25% Triton X100). Nuclei were pelleted at 1200×g for 5 min at 4° C. and resuspended in CiA NP Rinse 2 (10 mM Tris pH 8.0, 1 mM EDTA, 0.5 mM EGTA, 200 mM NaCl). Nuclei were pelleted at 1200×g for 5 min at 4° C. Nuclei were resuspended in shearing buffer (0.1% SDS, 1 mM EDTA pH 8, 10 mM Tris HCl, pH 8) and sonicated for 5 min using a Covaris sonicator (Hathaway et al., 2012). Input DNA and ChIP DNA was isolated according to Active Motif High Sensitivity ChIP-IT kit procedure. ChIP for H3K9me3 used Abcam (ab8898) primary antibody.
(§3) Enrichment of ChIP DNA was determined by qPCR. 384-well PCR plates contained 2 μL of template DNA and 8 μL of reaction mix of primers and FastStart Universal SYBR Green 2× master mix (Roche). Samples were run on a ViiA7 Real-Time PCR system (Applied Biosystems) (Pattenden et al., 2016). Plates were setup in technical duplicate or triplicate. Samples were analyzed using the comparative ΔΔCt method and normalized against an intergenic control region (Hathaway et al., 2012; Livak & Schmittgen, 2001). Experiment was performed in a minimum biological triplicate and data is representative of sample average. T-test were used to determine significant p-values.
(§4) To further characterize the effects of compound 2 on the HP1-heterochromatin pathway, perturbations in the levels of HP1γ, H3K4me3, and G9a at the CiA:Oct4 locus were assayed for using ChIP followed by […] analysis. Enrichment levels were determined at 489 bp downstream of the TSS and normalized to a house-keeping gene, intracisternal A-type particles (IAP). As shown previously, HP1γ functions similarly to HP1α in our inhibition assay. […] No change in H3K4me3 levels were detected upon compound 2 treatment despite the decrease in H3K9me3 (FIG. 11E). […]
as §1

G9a = test: ChIP-qPCR at CiA:Oct4 locus, TSS+489; details: four treatment conditions
Experimental: as §2, §3, §4, §1

HP1γ = test: ChIP-qPCR at CiA:Oct4 locus, TSS+489
Experimental: as §2, §3, §4, §1

Question: Which “Toxicity in SAR assay” value [1] does the source give for `CCCCCCNc1nc(N[C@H]2CCCNC2)c2cc(OC)c(OC)cc2n1` [compound 7, (S)—N^2-Hexyl-6,7-Dimethoxy-N^4-(Piperidin-3-yl)Quinazoline-2,4-Diamine] here?
Answer: toxicity and low cell counts

Question: And the “% inhibition compared with parent compound 1” value (“% inhibition” below) ([1]; + 6 nM rapamycin)?
Answer: decrease in inhibition

Question: With `C=CCCCN1CCC[C@H](Nc2nc(N3CCCC3)nc3cc(OC)c(OC)cc23)C1` [compound 5, (S)-6,7-Dimethoxy-N-(1-(Pent-4-en-1-yl)Piperidin-3-yl)-2-(Pyrrolidin-1-yl)Quinazolin-4-Amine, Trifluoroacetic Acid Salt] as the compound, how does the “% inhibition” value ([1]; + 6 nM rapamycin) read?
Answer: decrease in inhibition

Question: For `COc1cc2nc(N3CCCC3)nc(N[C@@H]3CCCN(C(=O)OC(C)(C)C)C3)c2cc1OC` [compound 6, Tert-Butyl (R)-3-((6,7-Dimethoxy-2-(Pyrrolidin-1-yl)Quinazolin-4-yl)Amino)Piperidine-1-Carboxylate], which “% inhibition” value ([1]; + 6 nM rapamycin) is on record?
Answer: decrease in inhibition

Question: With `COc1cc2nc(N3CCCC3)nc(N[C@@H]3CCCNC3)c2cc1OC` [compound 2, (R)-6,7-Dimethoxy-N-(Piperidin-3-yl)-2-(Pyrrolidin-1-yl)Quinazolin-4-Amine Trifluoroacetic Acid Salt] as the compound, how does the “% inhibition” value ([1]; + 6 nM rapamycin) read?
Answer: increase in activity over the parent

Question: What about the “ES cell differentiation and colony morphology” value (CiA:Oct4 N118/N163 cells; +/- 6 nM rapamycin) of the same compound?
Answer: did not result in gross cell differentiation or effect colony morphology

Question: And the “GFP expression by flow cytometry compared to untreated controls” value (CiA:Oct4 N118/N163 cells; with and without rapamycin)?
Answer: increased GFP expression

Question: And the “Decrease of H3K9me3 enrichment compared to plus rapamycin control” value (H3K9me3)?
Answer: ~9 fold

Question: And the “Change in H3K4me3 levels” value (H3K4me3)?
Answer: No change

Question: What about the “Change in G9a levels” value (G9a) of the same compound?
Answer: No significant changes

Question: And the “Increase of HP1γ levels compared to controls” value (HP1γ; compound alone, no HP1 recruitment)?
Answer: 46%

Question: What about the “Decrease of HP1γ levels compared to HP1 recruitment alone” value (HP1γ; with HP1 recruitment (rapamycin)) of the same compound?
Answer: 37%

Question: With `COc1cc2c(N[C@H]3CCCNC3)nc(N3CCCC3)nc2cc1OCCCN1CCCCC1` [compound 8, (S)-6-Methoxy-7-(3-(Piperidin-1-yl)Propoxy)-N-(Piperidin-3-yl)-2-(Pyrrolidin-1-yl)Quinazolin-4-Amine Trifluoroacetic Acid Salt] as the compound, how does the Biological activity preserved ([1]; + 6 nM rapamycin) read?
Answer: ~51%
